This note sets out measurements from patent US20160318987A1 (MEDIMMUNE LIMITED, priority 2013, published 2016).

Where two headings read alike, the source gives them in different places. Where a SMILES comes first, the peptide text is derived from it. Where no end group is shown, it is not given here. Side-chain parts run from the residue outwards. [ ]: non-standard residue; d: D form. αMeF = C[C@](N)(Cc1ccccc1)C(=O)O; Nle = CCCC[C@H](N)C(=O)O; Aib = CC(C)(N)C(=O)O; Mal = maleimide

For one assay, the target named is T1, hGLP-1R (Homo sapiens, UniProt P43220).
T1 construct: expressed in transfected cells
As to the kind of experiment: cAMP functional assay, cells expressing human GLP-1 receptor (primary assay). The class given is cell-based. To be noted: n = 2. The method, then:
(§1) The biological activities/receptor potencies of the synthetic GLP-1 peptides described herein are suitably tested for biological activity, e.g., stimulation of one or more cellular receptor responses. Stable cell lines expressing human, mouse, rat, or dog GLP-1 receptor (GLP-1R), glucagon receptor (GCGR) or glucose-dependent insulinotropic peptide (gastric inhibitory polypeptide) receptor (GIPR) are generated in HEK293 cells or CHO cells by standard methods.
(§2) cAMP assays were performed using “assay buffer”: Assay Buffer: 0.1% BSA (Sigma #A3059) in HBSS (Sigma #H8264) with 25 mM HEPES, pH 7.4 and containing 0.5 mM IBMX (Sigma #17018).
(§3) Low protein binding 384-well plates (Greiner #781280) are used to perform eleven 1 in 5 serial dilutions of test samples which are made in assay buffer. All sample dilutions are made in duplicate.
(§4) A frozen cryo-vial of cells expressing the receptor of interest is thawed rapidly in a water-bath, transferred to pre-warmed assay buffer and spun at 240× g for 5 minutes. Cells are re-suspended in assay buffer at a batch-dependent optimized concentration (e.g. hGCGR cells at 2×10^5 cells/ml, hGLP-1R and hGIPR cells at 1×10^5 cells /ml).
(§5) From the dilution plate, a 5 μL replica is stamped onto a black shallow-well u-bottom 384-well plate (Corning #3676). To this, 5 μL cell suspension is added and the plates incubated at room temperature for 30 minutes.
(§6) cAMP levels are measured using a commercially available cAMP dynamic 2 HTRF kit (Cisbio, Cat #62AM4PEJ), following the two step protocol as per manufacturer's recommendations. In brief; anti-cAMP cryptate (donor fluorophore) and cAMP-d2 (acceptor fluorophore) are made up separately by diluting each 1/20 in conjugate & lysis buffer provided in the kit. 5 μL anti-cAMP cryptate is added to all wells of the assay plate, and 5 μL cAMP-d2 is added to all wells except non-specific binding (NSB) wells, to which conjugate and lysis buffer are added. Plates are incubated at room temperature for one hour and then read on an Envision (Perkin Elmer) using excitation wavelength of 320 nm and emission wavelengths of 620 nm & 665 nm. EC50 values of the synthetic peptides determined in cAMP assays are then determined.

A further assay has as its target T2, hGIP-R (Homo sapiens, UniProt P48546).
T2 construct: expressed in transfected cells
T2 sequence (P48546 22-466): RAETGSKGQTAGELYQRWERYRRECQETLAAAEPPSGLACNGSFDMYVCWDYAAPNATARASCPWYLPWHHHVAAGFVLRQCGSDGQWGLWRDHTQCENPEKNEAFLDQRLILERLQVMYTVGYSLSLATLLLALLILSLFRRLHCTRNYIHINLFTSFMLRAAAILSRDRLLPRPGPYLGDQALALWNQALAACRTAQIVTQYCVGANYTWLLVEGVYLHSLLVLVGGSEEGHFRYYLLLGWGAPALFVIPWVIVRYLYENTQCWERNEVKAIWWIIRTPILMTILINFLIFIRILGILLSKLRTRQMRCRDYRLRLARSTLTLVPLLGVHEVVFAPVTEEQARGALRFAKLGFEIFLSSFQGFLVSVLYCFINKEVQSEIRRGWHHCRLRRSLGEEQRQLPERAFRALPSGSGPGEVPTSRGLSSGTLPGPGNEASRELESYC
The assay can be described thus: cAMP functional assay, cells expressing human GIP receptor (primary assay). In kind it is cell-based. To be noted: n = 2. The method, then:
as §1, §2, §3, §4, §5, §6

T1 sequence (P43220 24-463): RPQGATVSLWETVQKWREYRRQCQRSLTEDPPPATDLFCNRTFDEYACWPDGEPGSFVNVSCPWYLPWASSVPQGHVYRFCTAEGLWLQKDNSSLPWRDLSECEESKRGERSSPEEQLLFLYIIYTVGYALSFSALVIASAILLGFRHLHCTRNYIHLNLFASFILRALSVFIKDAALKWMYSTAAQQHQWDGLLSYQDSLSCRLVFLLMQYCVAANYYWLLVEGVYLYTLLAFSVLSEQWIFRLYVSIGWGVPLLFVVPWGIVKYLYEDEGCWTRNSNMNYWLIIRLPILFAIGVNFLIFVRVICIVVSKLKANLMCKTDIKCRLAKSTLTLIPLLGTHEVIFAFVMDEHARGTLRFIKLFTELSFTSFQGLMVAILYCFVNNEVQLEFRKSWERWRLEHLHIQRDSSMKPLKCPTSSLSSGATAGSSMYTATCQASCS

`CC[C@H](C)[C@H](NC(=O)C(C)(C)NC(=O)[C@H](CCC(=O)O)NC(=O)[C@H](CCCCN)NC(=O)[C@H](C)NC(=O)[C@H](C)NC(=O)[C@H](CCC(N)=O)NC(=O)CNC(=O)[C@H](CCC(=O)O)NC(=O)[C@H](CC(C)C)NC(=O)C(C)(C)NC(=O)[C@H](CO)NC(=O)[C@H](CO)NC(=O)[C@@H](NC(=O)[C@H](CC(=O)O)NC(=O)[C@H](CO)NC(=O)[C@@H](NC(=O)C(C)(C)NC(=O)[C@@H](NC(=O)CNC(=O)[C@H](CCC(=O)O)NC(=O)C(C)(C)NC(=O)[C@@H](N)Cc1c[nH]cn1)[C@@H](C)O)[C@@H](C)O)C(C)C)C(=O)N[C@@H](C)C(=O)NC(C)(C)C(=O)N[C@@H](CC(C)C)C(=O)N[C@H](C(=O)N[C@@H](CCCCN)C(=O)NCC(=O)N[C@@H](CCCNC(=N)N)C(N)=O)C(C)C` [SEQ ID NO: 16, H-(Aib)^2-EGT^5-(Aib)^6-TSDV^10 SS-(Aib)^13-LE^15 GQAAK^20 E-(Aib)^22-IA-(Aib)^25 LVKGR^30] (H-H[Aib]EGT[Aib]TSDVSS[Aib]LEGQAAKE[Aib]IA[Aib]LVKGR-NH2): the EC50 at hGLP-1R and at hGIP-R was 102 nM in each case. As for `CC[C@H](C)[C@H](NC(=O)[C@](C)(Cc1ccccc1)NC(=O)[C@H](CCC(=O)O)NC(=O)[C@H](CCCCN)NC(=O)[C@H](C)NC(=O)[C@H](C)NC(=O)[C@H](CCC(N)=O)NC(=O)CNC(=O)[C@H](CCC(=O)O)NC(=O)[C@H](CC(C)C)NC(=O)[C@](C)(Cc1ccccc1)NC(=O)[C@H](CO)NC(=O)[C@H](CO)NC(=O)[C@@H](NC(=O)[C@H](CC(=O)O)NC(=O)[C@H](CO)NC(=O)[C@@H](NC(=O)[C@](C)(Cc1ccccc1)NC(=O)[C@H](CO)NC(=O)CNC(=O)[C@H](CCC(=O)O)NC(=O)C(C)(C)NC(=O)[C@@H](N)Cc1c[nH]cn1)[C@@H](C)O)C(C)C)C(=O)N[C@@H](C)C(=O)N[C@@](C)(Cc1ccccc1)C(=O)N[C@@H](CC(C)C)C(=O)N[C@H](C(=O)N[C@@H](CCCCN)C(=O)NC(C)(C)C(=O)N[C@@H](CCCNC(=N)N)C(N)=O)C(C)C` [SEQ ID NO: 42, H-(Aib)^2-EG-(S)^5-(α-MeF)^6-TSDV^10 SS-(α-MeF)^13-LE^15 GQAAK^20 E-(α-MeF)^22-IA-(α-MeF)^25 LVK-(Aib)^29-R^30] (H-H[Aib]EGS[αMeF]TSDVSS[αMeF]LEGQAAKE[αMeF]IA[αMeF]LVK[Aib]R-NH2), the EC50 on hGLP-1R was 0.0234 nM; on hGIP-R, 102 nM. With `CC[C@H](C)[C@H](NC(=O)[C@](C)(Cc1ccccc1)NC(=O)[C@H](CCC(=O)O)NC(=O)[C@H](CCCCN)NC(=O)[C@H](C)NC(=O)[C@H](C)NC(=O)[C@H](CCC(N)=O)NC(=O)CNC(=O)[C@H](CCC(=O)O)NC(=O)[C@H](CC(C)C)NC(=O)[C@](C)(Cc1ccccc1)NC(=O)[C@H](CO)NC(=O)[C@H](CO)NC(=O)[C@@H](NC(=O)[C@H](CC(=O)O)NC(=O)[C@H](CO)NC(=O)[C@@H](NC(=O)[C@](C)(Cc1ccccc1)NC(=O)[C@H](CO)NC(=O)CNC(=O)[C@H](CCC(=O)O)NC(=O)C(C)(C)NC(=O)[C@@H](N)Cc1c[nH]cn1)[C@@H](C)O)C(C)C)C(=O)N[C@@H](C)C(=O)N[C@@](C)(Cc1ccccc1)C(=O)N[C@@H](CC(C)C)C(=O)N[C@H](C(=O)N[C@@H](CCCCN)C(=O)NCC(=O)NCC(N)=O)C(C)C` [SEQ ID NO: 39, H-(Aib)^2-EG-(S)^5-(α-MeF)^6-TSDV^10 SS-(α-MeF)^13-LE^15 GQAAK^20 E-(α-MeF)^22-IA-(α-MeF)^25 LVKG-(G)^30] (H-H[Aib]EGS[αMeF]TSDVSS[αMeF]LEGQAAKE[αMeF]IA[αMeF]LVKGG-NH2), the EC50 at hGLP-1R is 0.0322 nM; on hGIP-R, 102 nM. The matching figures for `CC[C@H](C)[C@H](NC(=O)[C@](C)(Cc1ccccc1)NC(=O)[C@H](CCC(=O)O)NC(=O)[C@H](CCCCN)NC(=O)[C@H](C)NC(=O)[C@H](C)NC(=O)[C@H](CCC(N)=O)NC(=O)CNC(=O)[C@H](CCC(=O)O)NC(=O)[C@H](CC(C)C)NC(=O)[C@](C)(Cc1ccccc1)NC(=O)[C@H](CO)NC(=O)[C@H](CO)NC(=O)[C@@H](NC(=O)[C@H](CC(=O)O)NC(=O)[C@H](CO)NC(=O)[C@@H](NC(=O)[C@](C)(Cc1ccccc1)NC(=O)[C@H](CO)NC(=O)CNC(=O)[C@H](CCC(=O)O)NC(=O)C(C)(C)NC(=O)[C@@H](N)Cc1c[nH]cn1)[C@@H](C)O)C(C)C)C(=O)N[C@@H](C)C(=O)N[C@@](C)(Cc1ccccc1)C(=O)N[C@@H](CC(C)C)C(=O)NC(C)(C)C(=O)N[C@@H](CCCCN)C(=O)NCC(=O)N[C@@H](CCCNC(=N)N)C(N)=O` [SEQ ID NO: 40, H-(Aib)^2-EG-(S)^5-(α-MeF)^6-TSDV^10 SS-(α-MeF)^13-LE^15 GQAAK^20 E-(α-MeF)^22-IA-(α-MeF)^25 L-(Aib)27-KGR^30] (H-H[Aib]EGS[αMeF]TSDVSS[αMeF]LEGQAAKE[αMeF]IA[αMeF]L[Aib]KGR-NH2): 0.254 nM and 102 nM. In the same order, the values of `CC[C@H](C)[C@H](NC(=O)[C@H](Cc1ccccc1)NC(=O)[C@H](CCC(=O)O)NC(=O)[C@H](CCCCN)NC(=O)[C@H](C)NC(=O)[C@H](C)NC(=O)[C@H](CCC(N)=O)NC(=O)CNC(=O)[C@H](CCC(=O)O)NC(=O)[C@H](CC(C)C)NC(=O)[C@H](Cc1ccccc1)NC(=O)[C@H](CO)NC(=O)[C@H](CO)NC(=O)[C@@H](NC(=O)[C@H](CC(=O)O)NC(=O)[C@H](CO)NC(=O)[C@@H](NC(=O)[C@H](Cc1ccccc1)NC(=O)[C@H](CO)NC(=O)CNC(=O)[C@H](CCC(=O)O)NC(=O)C(C)(C)NC(=O)[C@@H](N)Cc1c[nH]cn1)[C@@H](C)O)C(C)C)C(=O)N[C@@H](C)C(=O)N[C@@H](Cc1ccccc1)C(=O)N[C@@H](CC(C)C)C(=O)N[C@H](C(=O)N[C@@H](CCCCN)C(=O)NCC(=O)N[C@@H](CCCNC(=N)N)C(N)=O)C(C)C` [SEQ ID NO: 33, H-(Aib)^2-EG-(S)^5-FTSDV^10 SS-(F)^13-LE^15 GQAAK^20 EFIA-(F)^25 LVKGR^30] (H-H[Aib]EGSFTSDVSSFLEGQAAKEFIAFLVKGR-NH2) are 0.0183 nM and 102 nM.

For the molecule `CCCC[C@H](NC(=O)[C@H](C)NC(=O)[C@@H](NC(=O)[C@H](CCCC)NC(=O)[C@H](CCC(=O)O)NC(=O)[C@H](CCCCN)NC(=O)[C@H](C)NC(=O)[C@H](C)NC(=O)[C@H](CCC(N)=O)NC(=O)CNC(=O)[C@H](CCC(=O)O)NC(=O)[C@H](CC(C)C)NC(=O)[C@H](CCCC)NC(=O)[C@H](CO)NC(=O)[C@H](CO)NC(=O)[C@@H](NC(=O)[C@H](CC(=O)O)NC(=O)[C@H](CO)NC(=O)[C@@H](NC(=O)[C@H](CCCC)NC(=O)[C@@H](NC(=O)CNC(=O)[C@H](CCC(=O)O)NC(=O)C(C)(C)NC(=O)[C@@H](N)Cc1c[nH]cn1)[C@@H](C)O)[C@@H](C)O)C(C)C)[C@@H](C)CC)C(=O)N[C@@H](CC(C)C)C(=O)N[C@H](C(=O)N[C@@H](CCCCN)C(=O)NCC(=O)N[C@@H](CCCNC(=N)N)C(N)=O)C(C)C` [SEQ ID NO: 17, H-(Aib)^2-EGT^5-(Nle)^6-TSDV^10 SS-(Nle)^13-LE^15 GQAAK^20 E-(Nle)^22-IA-(Nle)^25 LVKGR^30] (H-H[Aib]EGT[Nle]TSDVSS[Nle]LEGQAAKE[Nle]IA[Nle]LVKGR-NH2), the EC50 is 3.48 nM at hGLP-1R and 102 nM on hGIP-R. Take “H-(Aib)^2-EG-(S)^5-(α-MeF)^6-TSDV^10 SS-(α-MeF)^13-LE^15 GQAAK^20 E-(α-MeF)^22-IA-(α-MeF)^25 LVKG-(G)^30-(SSG)3-(Cys-Mal-mPEG)[40 kD] (H[Aib]EGS[αMeF]TSDVSS[αMeF]LEGQAAKE[αMeF]IA[αMeF]LVKGGSSGSSGSSGC([Mal-mPEG 40 kDa]); not fully specified (C-terminus); printed as H-(Aib)^2-EG-(S)^5-(α-MeF)^6-TSDV^10 SS-(α-MeF)^13-LE^15 GQAAK^20 E-(α-MeF)^22-IA-(α-MeF)^25 LVKG-(G)^30-(SSG)3-(Cys-Mal-mPEG)[40 kD]) [SEQ ID NO: 50]”: the EC50 with hGLP-1R (read-out: Primary assay EC50 (n = 2) hGLP-1R) was 0.0278 nM.

As usually defined, the EC50 is the concentration needed to bring the measured effect to its halfway point.
